# Measurements from patent US8092841B2.
# Columns and labels:
# ERβ [1] = biological target: T1, ERβ (Homo sapiens, UniProt Q92731); conditions: in the presence of ERβ
# Excerpt: (§1) Plasmid Construction. […] ERβ mutants were created with QuikChange site-directed mutagenesis kits (Stratagene), by using oligonucleotides containing the mutation. The mutants were sequenced with Sequenase kits (Amersham Pharmacia) to verify the presence of the mutation.
# ERβ [2] = biological target: T1, ERβ; test: TNF-RE tkLuc repression, U2OS cells with ERβ; assay type: cell-based; set-up: expressed in transfected cells; host or cells: U2OS (human osteosarcoma)
# TNF-RE tkLuc = test: Activation of TNF-RE tkLuc reporter (Example 2); assay type: cell-based; conditions: for activation of TNF-RE tkLuc by antiestrogens: in contrast to E2
# Excerpt: as §1
# breast cancer [3] = conditions: among the 5129 women in the raloxifene treatment group, median follow-up of 40 months; cited from earlier work
# breast cancer [4] = conditions: five years of tamoxifen therapy; cited from earlier work
# breast cancer [5] = conditions: women at high risk for breast cancer; cited from earlier work
# T1 sequence (Q92731 whole entry): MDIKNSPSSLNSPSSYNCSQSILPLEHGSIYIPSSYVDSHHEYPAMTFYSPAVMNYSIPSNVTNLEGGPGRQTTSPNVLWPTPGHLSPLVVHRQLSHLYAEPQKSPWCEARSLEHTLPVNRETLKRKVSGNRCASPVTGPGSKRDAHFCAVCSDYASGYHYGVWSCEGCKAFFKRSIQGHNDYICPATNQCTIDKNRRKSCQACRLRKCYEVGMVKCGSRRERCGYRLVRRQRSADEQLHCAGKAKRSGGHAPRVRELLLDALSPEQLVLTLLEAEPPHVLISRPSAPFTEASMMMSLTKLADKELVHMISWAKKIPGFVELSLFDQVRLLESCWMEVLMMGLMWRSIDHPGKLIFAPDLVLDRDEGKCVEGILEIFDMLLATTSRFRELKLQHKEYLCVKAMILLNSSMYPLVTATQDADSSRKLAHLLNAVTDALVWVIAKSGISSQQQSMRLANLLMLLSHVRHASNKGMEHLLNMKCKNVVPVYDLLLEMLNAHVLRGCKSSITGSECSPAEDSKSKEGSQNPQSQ
molecule,measurement,setting,value
"C[C@]12CC[C@@H]3c4ccc(O)cc4CC[C@H]3[C@@H]1CC[C@@H]2O [E2, estradiol]",repression of TNF-α activation of TNF-RE tkLuc,ERβ [1],60-80%
same,repression of TNF-α activation of TNF-RE,ERβ [2],100%
"C[C@]12CC[C@@H]3c4ccc(O)cc4C[C@@H](CCCCCCCCC[S+]([O-])CCCC(F)(F)C(F)(F)F)[C@H]3[C@@H]1CC[C@@H]2O (stereo partly shown) [ICI 182, 780]",activation of TNF-RE tkLuc by antiestrogens,TNF-RE tkLuc,2 fold
O=C(c1ccc(OCCN2CCCCC2)cc1)c1c(-c2ccc(O)cc2)sc2cc(O)ccc12 [raloxifene],activation of TNF-RE tkLuc by antiestrogens,TNF-RE tkLuc,2 fold
same,cases of breast cancer,breast cancer [3],13 cases
CC/C(=C(\c1ccccc1)c1ccc(OCCN(C)C)cc1)c1ccccc1 [tamoxifen],activation of TNF-RE tkLuc by antiestrogens,TNF-RE tkLuc,2 fold
same,reduction of mortality from breast cancer,breast cancer [4],22%
same,reduction of the risk of recurrences,breast cancer [4],42%
same,reduction of the risk of primary invasive breast cancer,breast cancer [5],49%
TNF-α,activation of 3 copies of the TNF-RE (−125 to −82) upstream of the tk promoter,TNF-RE tkLuc; TNF-RE tkLuc,5-10 fold
